What is called AUC(0-inf) is the area under the concentration-time curve extrapolated to infinity. A higher AUC(0-inf) goes with more exposure. In general, AUC(0-t) refers to exposure summed from dosing to a finite time, without extrapolation to infinity. Low readings indicate less exposure, high ones more exposure. One may read the Cmax as the highest concentration seen after dosing. As a reminder, the half-life is how long it takes for the measured level to halve. A higher half-life goes with slow decline. As a reminder, the MRT inf is the average time that molecules of a dose stay in the body. As usually defined, the Tmax is the time from dosing to the highest level.

A short description of one data set: in vivo. The conditions noted are these: rat; for AUC(0-inf) / AUC(0-t) / Cmax / half-life / MRT inf / Tmax: male, SD; for AUC(0-inf): AUCINF_pred; for AUC(0-t): AUClast; for half-life: HL_Lambda_z (T1/2); for MRT inf: MRTINF_pred. The method, then: Compounds tested were as follows: kinetin (MW=215.21); MTK-115 (MW=243.26); MTK-115D (MW=219.29); MTK-125A (MW=217.27); and MTK-63A (MW=203.24). Formulation concentrations were 0.2 mg/mL for IV delivery; 0.5 mg/mL for PO delivery. Dosing was as follows: IV: 1 mg/kg, 5 mL/kg; PO: 5 mg/kg, 10 mL/kg. Results are as follows:
Compounds were prepared in a formulation of 4% DMSO, 15% Solutol HS 15, 81% PBS and then administered to male SD rats via oral gavage at 5 mg/kg (n=3 per compound). Plasma draws were taken at 15m, 30m, 1 hr, 2 hr, 4 hr, 8 hr, and 24 hrs, then analyzed by mass spectrometry for presence of the compound. Data were then plotted, and AUC values calculated.

A further data set has as its target T1, PINK1 (Homo sapiens, UniProt Q9BXM7).
T1 construct: expressed in transfected cells; host or cells: HeLa cells, retroviral transduction; they also stably express FRB-Fis1, mt-mKeima and Parkin
The data set can be described thus: PINK1-specific mitophagy assay (FACS for lysosomal-positive mt-mKeima). Format: cell-based. An excerpt: mt-mKeima was cloned into a pCHAC-MCS-1-IRES-MCS2 vector. PINK1D110-YFP-23FKBP wild-type was cloned into pRetroQ-AcGFP-C1 at NheI/XhoI sites by Gibson assembly kit. The HA-tag was removed, and stop codon introduced. Wild-type HeLa cells stably expressing FRB-Fis1, mt-mKeima, Parkin, and wild-type PINK1D110-YFP-23FKBP were generated using retroviral transduction as described previously. Flag/HA-receptors were stably expressed in these cells by lentivirus transduction as described previously then treated with varying concentrations (see Table 2) of the experimental compounds for 5 days, followed by 1 uM rapalog for 24 h. Cells were then resuspended in sorting buffer (145 mM NaCl, 5 mM KCl, 1.8 mM CaCl2, 0.8 mM MgCl2, 10 mM HEPES, 10 mM glucose, 0.1% BSA) containing […] DAPI. Analysis was performed using Summit software (v6.2.6.16198) on a Beckman Coulter MoFlo Astrios cell sorter. Measurements of lysosomal mt-mKeima were made using dual-excitation ratiometric pH measurements at 488 (pH7) and 561 (pH4) nm lasers with 620/29 nm and 614/20 nm emission filters, respectively. For each sample, 50,000 events were collected and subsequently gated for YFP/mt-mKeima double-positive cells that were DAPI-negative. Data were analysed using FlowJo (v10, Tree Star).

The subject of data set [1] is Parkin-expressing HeLa cells with intact wt PINK1. The data set can be described thus: Cytotoxicity experiments (DAPI stain, FACS). The note with it: 50 uM, 24 hrs, versus MTK-64, FIG. 6. In kind it is cell-based. The method, then: Compounds were incubated for 24 hrs at 50 uM in Parkin-expressing HeLa cells with intact wt PINK1. After 24 hrs, cells were DAPI stained according to standard protocols and assayed via FACS.

Setting [2] is: rapalog + experimental compound 12.5 uM.
The mark [3] stands for this setting: rapalog + experimental compound 25 uM.
Where [4] appears, read: rapalog + experimental compound 50 uM.

Structures are written as SMILES.

T1 sequence (Q9BXM7 111-581 limits assumed): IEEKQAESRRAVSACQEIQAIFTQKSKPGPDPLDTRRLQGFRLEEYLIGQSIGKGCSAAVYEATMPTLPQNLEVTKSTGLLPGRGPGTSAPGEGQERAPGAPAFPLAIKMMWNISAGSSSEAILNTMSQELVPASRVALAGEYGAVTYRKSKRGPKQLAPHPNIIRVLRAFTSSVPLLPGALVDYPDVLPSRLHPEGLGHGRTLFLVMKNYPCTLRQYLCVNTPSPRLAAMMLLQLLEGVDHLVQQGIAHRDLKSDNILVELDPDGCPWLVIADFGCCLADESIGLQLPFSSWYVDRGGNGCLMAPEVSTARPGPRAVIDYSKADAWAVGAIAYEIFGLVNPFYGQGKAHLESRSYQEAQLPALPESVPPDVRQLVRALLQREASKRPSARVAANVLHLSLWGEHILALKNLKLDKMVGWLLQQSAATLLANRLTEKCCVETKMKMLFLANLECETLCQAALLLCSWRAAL

In the data set “in vivo” (iv, 1 mg/kg), `C/C=C/CNc1nc(C)nc2[nH]cnc12` [MTK-63A] had a total exposure AUC(0-inf) of 360 ng·h/mL, an AUC(0-t) of 359 ng·h/mL, a peak concentration (Cmax) of 1140 ng/mL and a half-life of 7.8 min. This compound showed an MRT inf in “in vivo” (iv, 1 mg/kg) of 10.2 min. Further, in “in vivo” (iv, 1 mg/kg, Tmax), the Tmax was found to be 4.8 min. Also, in “in vivo” (po, 5 mg/kg), the time to peak (Tmax) was found to be 18 min, the AUC(0-inf) stood at 306 ng·h/mL, the AUC(0-t) is 294 ng·h/mL and the highest level (Cmax) was 305 ng/mL. In addition, in the data set “in vivo” (po, 5 mg/kg), the half-life was 97.8 min and the MRT inf is 145 min. Moreover, the time to peak (Tmax) in “in vivo” (po, 5 mg/kg, Tmax) amounted to 15 min.

Consider `C/C=C/CNc1nc(C)nc2[nH]c(C)nc12` [MTK-115A], for which the Cmax in “in vivo” (po, 5 mg/kg) turned out to be 769 ng/mL. Besides, the MRT inf in the data set “in vivo” (po, 5 mg/kg) came out at 175 min. For the same compound, the “oral PK, AUC versus comparator” value in the data set “in vivo” (5 mg/kg) is listed as “substantial increase in AUC”. Also, the “percentage of cells undergoing mitophagy” value came to 7.26% at PINK1 (setting [2]), 7.76% on PINK1 (setting [3]) and 8.41% on PINK1 (setting [4]).

As for `CCCCNc1nc(C)nc2[nH]c(C)nc12` [MTK-115D], in the data set “in vivo” (iv, 1 mg/kg), the AUC(0-inf) came out at 470 ng·h/mL, the AUC(0-t) stood at 469 ng·h/mL, the concentration peaked (Cmax) at 1440 ng/mL and the half-life was 7.2 min. Further, in “in vivo” (iv, 1 mg/kg), the MRT inf was determined as 10.2 min. The Tmax in the data set “in vivo” (iv, 1 mg/kg, Tmax) came to 4.8 min. Further, in the data set “in vivo” (po, 5 mg/kg), the half-life is 39.6 min and the MRT inf worked out at 182 min. The “percentage of cells undergoing mitophagy” value at PINK1 (setting [2]) worked out at 16.7%. Moreover, at PINK1 (setting [3]), the “percentage of cells undergoing mitophagy” value is 18.1%. Further, the “percentage of cells undergoing mitophagy” value on PINK1 (setting [4]) worked out at 18.6%. In addition, on PINK1 (versus MTX-63H (hydrogen instead of methyl at R3), FIG. 5), the “increase in activity (mitophagy)” value is reported as around 40%.

`Cc1nc(NCc2ccco2)c2nc(C)[nH]c2n1` [MTK-115]: in the data set “in vivo” (iv, 1 mg/kg), the highest concentration (Cmax) worked out at 1850 ng/mL, the half-life was 23.4 min and the mean residence time (MRT inf) amounted to 24.6 min. Also, the Tmax in “in vivo” (iv, 1 mg/kg, Tmax) was 4.8 min. In addition, in the data set “in vivo” (po, 5 mg/kg), the area under the curve AUC(0-inf) is 5450 ng·h/mL, the AUC(0-t) was 5300 ng·h/mL, the Cmax came out at 1040 ng/mL and the half-life is 69 min. In addition, the MRT inf in the data set “in vivo” (po, 5 mg/kg) turned out to be 203 min. For the same compound, the Tmax in “in vivo” (po, 5 mg/kg, Tmax) is 240 min. For the same compound, the “toxicity versus mono-substituted comparator” value in data set [1] was “substantial decrease in toxicity”. Moreover, the “percentage of cells undergoing mitophagy” value at PINK1 (setting [2]) worked out at 13.4%. Moreover, at PINK1 (setting [3]), the “percentage of cells undergoing mitophagy” value amounted to 16%. Also, the “percentage of cells undergoing mitophagy” value on PINK1 (setting [4]) worked out at 18.4%.

In “in vivo” (iv, 1 mg/kg), `c1coc(CNc2ncnc3[nH]cnc23)c1` [kinetin, reference compound] had an AUC(0-inf) of 57 ng·h/mL, an AUC(0-t) of 56.8 ng·h/mL, a maximum concentration (Cmax) of 176 ng/mL and a half-life of 7.2 min. In “in vivo” (iv, 1 mg/kg), this compound displayed a mean residence time (MRT inf) of 10.8 min. For the same compound, the Tmax in “in vivo” (iv, 1 mg/kg, Tmax) was determined as 4.8 min. In “in vivo” (po, 5 mg/kg), this compound gave an AUC(0-inf) of 130 ng·h/mL, an AUC(0-t) of 122 ng·h/mL, a half-life of 64.8 min and a mean residence time MRT inf of 79.2 min. Besides, the time of peak concentration (Tmax) in the data set “in vivo” (po, 5 mg/kg, Tmax) was 15 min.

The record behind these values is US11414419B2, “Substituted purines for the treatment of neurodegenerative and mitochondrial diseases” (Mitokinin, Inc., priority 2017, dated 2022).
